Experimental data as given in patent US20100099773A1, “INCLUSION COMPLEX OF S[…] BETA-CYCLODEXTRIN” (priority 2006, published 2010).

Legend:
Format in all cases: physicochemical
[1] = Photo-stability after UV-irradiation, impurities by HPLC; settings: for Content of impurities, UV: after UV-irradiation for 120 hours (total radiation dosage: 200 watt); for Content of impurities, Initial: before UV-irradiation
Protocol: Sibutramine free base, sibutramine hydrochloride monohydrate and sibutramine inclusion complex (Examples 1 and 2) were compared in terms of photo-stability.
After UV-irradiation for 120 hours (total radiation dosage: 200 watt), the content of impurities was measured with high performance liquid chromatography (HPLC).

[2] = Solution stability (pH 5.2) at high temperature, impurities by HPLC; settings: solution 1 mg/mL; for Total impurities, 4th day: 4 days; for Total impurities, 7th day: 7 days; for Total impurities, 14th day: 14 days
Protocol: Solution Stability (pH 5.2)
Sibutramine free base, sibutramine hydrochloride monohydrate and sibutramine inclusion complex (Examples 1 and 2) were compared in terms of solution stability at high temperature.
Specifically, each compound was dissolved into the concentration of 1 mg/mL and pH 5.2, and the solution was moved to a 20 mL vial. Solution stability test was conducted at 60° C. and 70° C., respectively, by measuring the content of impurities with high performance liquid chromatography (HPLC) after the storage for 4, 7 and 14 days.

[3] = Temperature & humidity stability, impurities by HPLC; settings: for Content of impurities, 60° C., 75%: stored at 60° C. 75% for 2 weeks; for Content of impurities, 60° C., 93%: stored at 60° C. 93% for 2 weeks; for Content of impurities, 70° C., 75%: stored at 70° C. 75% for 2 weeks
Protocol: Temperature & Humidity Stability
Sibutramine free base, sibutramine hydrochloride monohydrate and sibutramine inclusion complex (Examples 1 and 2) were compared in terms of temperature and humidity stability.
Specifically, each compound was stored under the condition selected from the group consisting of 60° C. 75%, 60° C. 93% and 70° C. 75% for 2 weeks. The content impurities was measured with high performance liquid chromatography (HPLC).

## CC(C)CC(N(C)C)C1(c2ccc(Cl)cc2)CCC1.Cl (centres unmarked) [Sibutramine hydrochloride monohydrate]
[1]
  Content of impurities, UV: 0.11
  Content of impurities, Initial: 0.06
[2]; pH 5.2, 60 C.
  Total impurities, 4th day: 0.02%
  Total impurities, 7th day: 0.02%
  Total impurities, 14th day: 0.09%
  Total impurities, Initial: 0.00%
[2]; pH 5.2, 70 C.
  Total impurities, 4th day: 1.56%
  Total impurities, 7th day: 2.09%
  Total impurities, 14th day: 4.49%
  Total impurities, Initial: 0.00%
[3]
  Content of impurities, Initial: 0.00
  Content of impurities, 60° C., 75%: 0.06
  Content of impurities, 60° C., 93%: 0.07
  Content of impurities, 70° C., 75%: 0.13

## CC(C)CC(N(C)C)C1(c2ccc(Cl)cc2)CCC1 (centres unmarked) [Sibutramine free base, N,N-dimethyl-1-[1-(4-chlorophenyl)-cyclobutyl]-3-methylbutylamine]
[1]
  Content of impurities, UV: 0.33
  Content of impurities, Initial: 0.00
[2]; pH 5.2, 60 C.
  Total impurities, 4th day: 7.59%
  Total impurities, 7th day: 13.77%
  Total impurities, 14th day: 17.16%
  Total impurities, Initial: 0.00%
[2]; pH 5.2, 70 C.
  Total impurities, 4th day: 10.04%
  Total impurities, 7th day: 17.05%
  Total impurities, 14th day: 20.52%
  Total impurities, Initial: 0.00%
[3]; comparison of Table 3
  Temperature and humidity stability, in words: most unstable
[3]
  Content of impurities, Initial: 0.00
  Content of impurities, 60° C., 75%: 5.65
  Content of impurities, 60° C., 93%: 6.09
  Content of impurities, 70° C., 75%: 8.27
